Patent publication US20160002204A1 (Board of Regents, The University of Texas System, priority 2014, published 2016)
pEC50, pIC50: −log10 of the molar value.

What was measured:
A549 cells = experiment: A549 proliferation (viability) assay, Cell Titer Fluor, 72 hours; type: cell-based; details: Homo sapiens
Method in brief: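 1000 A549 cells/well, RPMI 1640/10% dialyzed FBS, 24 h attach; compound 72 h, 0.5% DMSO, 37 °C/5% CO2; Cell Titer Fluor fluorescence; EC50 via 4-parameter logistic.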

[1] = target: T1, GLS1 (purified recombinant human GAC) (Homo sapiens, UniProt O94925); experiment: GLS1 enzymatic activity assay (dual-coupled, Amplex UltraRed/resorufin); type: biochemical
T1 sequence (O94925 55-598 isoform O94925-3 limits assumed): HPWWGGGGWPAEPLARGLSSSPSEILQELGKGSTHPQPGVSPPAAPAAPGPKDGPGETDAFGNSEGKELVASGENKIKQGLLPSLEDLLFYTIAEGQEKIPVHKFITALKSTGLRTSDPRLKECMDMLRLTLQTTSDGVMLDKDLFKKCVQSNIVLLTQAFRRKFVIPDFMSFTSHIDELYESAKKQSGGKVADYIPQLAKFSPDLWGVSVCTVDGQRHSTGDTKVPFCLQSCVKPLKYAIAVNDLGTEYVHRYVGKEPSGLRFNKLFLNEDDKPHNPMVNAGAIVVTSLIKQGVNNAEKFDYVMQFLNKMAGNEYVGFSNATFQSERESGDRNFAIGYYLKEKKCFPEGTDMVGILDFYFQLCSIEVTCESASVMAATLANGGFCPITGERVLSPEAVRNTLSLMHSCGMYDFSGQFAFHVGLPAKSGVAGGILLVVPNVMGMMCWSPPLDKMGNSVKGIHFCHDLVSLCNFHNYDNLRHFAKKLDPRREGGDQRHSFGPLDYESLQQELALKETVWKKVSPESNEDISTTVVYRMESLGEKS
Method in brief: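 Recombinant human GAC (2 nM) preincubated with 50 mM potassium phosphate, then inhibitor (10 min each, RT); 1 mM glutamine, pH 7.4 Hepes buffer, 1% DMSO. Glutamate coupled via glutamate oxidase/HRP to resorufin (Ex 530/Em 590), kinetic or 20-min endpoint; IC50 by four-parameter logistic fit.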

SMILES	pEC50 (A549 cells)	pIC50 [1]
Cc1ccc(CNC(=O)c2cn(CC(F)CCn3ncc(NC(=O)CC4CCC4)cc3=O)nn2)cn1 (stereo not drawn) [Example 402, 1-{4-[4-(2-cyclobutylacetamido)-6-oxo-1,6-dihydropyridazin-1-yl]-2-fluorobutyl}-N-[(6-methylpyridin-3-yl)methyl]-1H-1,2,3-triazole-4-carboxamide]	5.30 to 6.30	6.30 to 7.00
CNC(=O)c1cn(CC(F)CCn2ccc(NC(=O)CN3CCN(C(=O)OC(C)(C)C)CC3)cc2=O)nn1 (stereo not drawn) [Example 403, tert-butyl 4-{[(1-{3-fluoro-4-[4-(methylcarbamoyl)-1H-1,2,3-triazol-1-yl]butyl}-2-oxo-1,2-dihydropyridin-4-yl)carbamoyl]methyl}piperazine-1-carboxylate]	5.30 to 6.30	6.30 to 7.00
CC(C)CNC(=O)c1cn(CC(F)CCn2ccc(NC(=O)CN3CCN(C(=O)OC(C)(C)C)CC3)cc2=O)nn1 (stereo not drawn) [Example 404, tert-butyl 4-({[1-(3-fluoro-4-{4-[(2-methylpropyl)carbamoyl]-lH-1,2,3-triazol-1-yl}butyl)-2-oxo-1,2-dihydropyridin-4-yl]carbamoyl}methyl)piperazine-1-carboxylate]	5.30 to 6.30	6.30 to 7.00
CC(C)(C)OC(=O)N1CCN(CC(=O)Nc2ccn(CCC(F)Cn3cc(C(=O)NCC4CCCC4)nn3)c(=O)c2)CC1 (stereo not drawn) [Example 405, tert-butyl 4-({[1-(4-{4-[(cyclopentylmethyl)carbamoyl]-1H-1,2,3-triazol-1-yl}-3-fluorobutyl)-2-oxo-1,2-dihydropyridin-4-yl]carbamoyl}methyl)piperazine-1-carboxylate]	6.30 to 7.00	6.30 to 7.00
CC(C)(CO)CNC(=O)c1cn(CC(F)CCn2ccc(NC(=O)CN3CCN(C(=O)OC(C)(C)C)CC3)cc2=O)nn1 (stereo not drawn) [Example 406, tert-butyl 4-({[1-(3-fluoro-4-{4-[(3-hydroxy-2,2-dimethylpropyl)carbamoyl]-1H-1,2,3-triazol-1-yl}butyl)-2-oxo-1,2-dihydropyridin-4-yl]carbamoyl}methyl)piperazine-1-carboxylate]	< 5.30	5.30 to 6.30
CC(C)(C)OC(=O)N1CCN(CC(=O)Nc2ccn(CCC(F)Cn3cc(C(N)=O)nn3)c(=O)c2)CC1 (stereo not drawn) [Example 407, tert-butyl 4-[({1-[4-(4-carbamoyl-1H-1,2,3-triazol-1-yl)-3-fluorobutyl]-2-oxo-1,2-dihydropyridin-4-yl}carbamoyl)methyl]piperazine-1-carboxylate]	< 5.30	5.30 to 6.30
CC(C)(C)OC(=O)c1cn(CC(F)CCn2ccc(CO)cc2=O)nn1 (stereo not drawn) [Example 408, tert-butyl 1-{2-fluoro-4-[4-(hydroxymethyl)-2-oxo-1,2-dihydropyridin-1-yl]butyl}-1H-1,2,3-triazole-4-carboxylate]	< 5.30	< 5.30
O=C(Cc1ccccc1)Nc1ccn(CCC(F)Cn2cc(C(=O)NCc3ccc(OC(F)(F)F)cn3)nn2)c(=O)c1F (stereo not drawn) [Example 409, 1-{2-fluoro-4-[3-fluoro-2-oxo-4-(2-phenylacetamido)-1,2-dihydropyridin-1-yl]butyl}-N-{[5-(trifluoromethoxy)pyridin-2-yl]methyl}-1H-1,2,3-triazole-4-carboxamide]	> 7.00	> 7.00
O=C(Nc1ccn(CCC(F)Cn2cc(C(=O)NCc3cc(C(F)(F)F)ccn3)nn2)c(=O)n1)OC1CCC1 (stereo not drawn) [Example 410, cyclobutyl N-(1-{3-fluoro-4-[4-({[4-(trifluoromethyl)pyridin-2-yl]methyl}carbamoyl)-1H-1,2,3-triazol-1-yl]butyl}-2-oxo-1,2-dihydropyrimidin-4-yl)carbamate]	5.30 to 6.30	6.30 to 7.00
Cc1ccc(CNC(=O)c2cn(CC(F)CCn3ccc(NC(=O)C(=O)N4CCCC4)c(F)c3=O)nn2)cn1 (stereo not drawn) [Example 411, 1-(2-fluoro-4-{3-fluoro-2-oxo-4-[2-oxo-2-(pyrrolidin-1-yl)acetamido]-1,2-dihydropyridin-1-yl}butyl)-N-[(6-methylpyridin-3-yl)methyl]-1H-1,2,3-triazole-4-carboxamide]	5.30 to 6.30	5.30 to 6.30
Cc1ccc(CNC(=O)c2cn(CC(F)CCn3ccc(NC(=O)C(=O)N4CCCCC4)c(F)c3=O)nn2)cn1 (stereo not drawn) [Example 412, 1-(2-fluoro-4-{3-fluoro-2-oxo-4-[2-oxo-2-(piperidin-1-yl)acetamido]-1,2-dihydropyridin-1-yl}butyl)-N-[(6-methylpyridin-3-yl)methyl]-1H-1,2,3-triazole-4-carboxamide]	5.30 to 6.30	6.30 to 7.00
Cc1ccc(CNC(=O)c2cn(CC(F)CCn3ccc(NC(=O)OC4CCC4)nc3=O)nn2)cn1 (stereo not drawn) [Example 413, cyclobutyl N-{1-[3-fluoro-4-(4-{[(6-methylpyridin-3-yl)methyl]carbamoyl}-1H-1,2,3-triazol-1-yl)butyl]-2-oxo-1,2-dihydropyrimidin-4-yl}carbamate]	5.30 to 6.30	6.30 to 7.00
O=C(NCc1cccc(OC(F)(F)F)c1)c1cn(CC(F)CCn2ccc(COc3ccccc3)cc2=O)nn1 (stereo not drawn) [Example 414, 1-(2-fluoro-4-(2-oxo-4-(phenoxymethyl)pyridin-1(2H)-yl)butyl)-N-(3-(trifluoromethoxy)benzyl)-1H-1,2,3-triazole-4-carboxamide]	5.30 to 6.30	> 7.00
O=C(CN1CC2CC(C2)C1)Nc1ccn(CCC(F)Cn2cc(C(=O)NCc3cc(C(F)(F)F)ccn3)nn2)c(=O)c1F (stereo not drawn) [Example 415, 1-{4-[4-(2-{3-azabicyclo[3.1.1]heptan-3-yl}acetamido)-3-fluoro-2-oxo-1,2-dihydropyridin-1-yl]-2-fluorobutyl}-N-{[4-(trifluoromethyl)pyridin-2-yl]methyl}-1H-1,2,3-triazole-4-carboxamide]	> 7.00	> 7.00
O=C(CN1CCC(F)(F)CC1)Nc1ccn(CCC(F)Cn2cc(C(=O)NCc3cc(C(F)(F)F)ccn3)nn2)c(=O)c1F (stereo not drawn) [Example 416, 1-(4-{4-[2-(4,4-difluoropiperidin-1-yl)acetamido]-3-fluoro-2-oxo-1,2-dihydropyridin-1-yl}-2-fluorobutyl)-N-{[4-(trifluoromethyl)pyridin-2-yl]methyl}-1H-1,2,3-triazole-4-carboxamide]	> 7.00	> 7.00
O=C(Nc1ccn(CCC(F)Cn2cc(C(=O)NCc3cccc(OC(F)(F)F)c3)nn2)c(=O)c1F)C(=O)N1CCOCC1 (stereo not drawn) [Example 417, 1-(2-fluoro-4-{3-fluoro-4-[2-(morpholin-4-yl)-2-oxoacetamido]-2-oxo-1,2-dihydropyridin-1-yl}butyl)-N-{[3-(trifluoromethoxy)phenyl]methyl}-1H-1,2,3-triazole-4-carboxamide]	5.30 to 6.30	6.30 to 7.00
CC1CCCN(C(=O)C(=O)Nc2ccn(CCC(F)Cn3cc(C(=O)NCc4cccc(OC(F)(F)F)c4)nn3)c(=O)c2F)C1 (stereo not drawn) [Example 418, 1-(2-fluoro-4-{3-fluoro-4-[2-(3-methylpiperidin-1-yl)-2-oxoacetamido]-2-oxo-1,2-dihydropyridin-1-yl}butyl)-N-{[3-(trifluoromethoxy)phenyl]methyl}-1H-1,2,3-triazole-4-carboxamide]	> 7.00	> 7.00
O=C(Nc1ccn(CCC(F)Cn2cc(C(=O)NCc3cccc(OC(F)(F)F)c3)nn2)c(=O)c1F)C(=O)N1CCCC(C(F)(F)F)C1 (stereo not drawn) [Example 419, 1-[2-fluoro-4-(3-fluoro-2-oxo-4-{2-oxo-2-[3-(trifluoromethyl)piperidin-1-yl]acetamido}-1,2-dihydropyridin-1-yl)butyl]-N-{[3-(trifluoromethoxy)phenyl]methyl}-1H-1,2,3-triazole-4-carboxamide]	> 7.00	> 7.00
N#CC1CCCN(C(=O)C(=O)Nc2ccn(CCC(F)Cn3cc(C(=O)NCc4cccc(OC(F)(F)F)c4)nn3)c(=O)c2F)C1 (stereo not drawn) [Example 420, 1-(4-{4-[2-(3-cyanopiperidin-1-yl)-2-oxoacetamido]-3-fluoro-2-oxo-1,2-dihydropyridin-1-yl}-2-fluorobutyl)-N-{[3-(trifluoromethoxy)phenyl]methyl}-1H-1,2,3-triazole-4-carboxamide]	5.30 to 6.30	> 7.00
O=C(Nc1ccn(CCC(F)Cn2cc(C(=O)NCc3cccc(C(F)(F)F)c3)nn2)c(=O)c1F)C(=O)N1CCCCC1 (stereo not drawn) [Example 421, 1-(2-fluoro-4-{3-fluoro-2-oxo-4-[2-oxo-2-(piperidin-1-yl)acetamido]-1,2-dihydropyridin-1-yl}butyl)-N-{[3-(trifluoromethyl)phenyl]methyl}-1H-1,2,3-triazole-4-carboxamide]	> 7.00	> 7.00
O=C(Nc1ccn(CCC(F)Cn2cc(C(=O)NCc3cc(OC(F)(F)F)ccc3F)nn2)c(=O)c1F)C(=O)N1CCCCC1 (stereo not drawn) [Example 422, 11-(2-fluoro-4-(3-fluoro-2-oxo-4-(2-oxo-2-(piperidin-1-yl)acetamido)pyridin-1(2H)-yl)butyl)-N-(2-fluoro-5-(trifluoromethoxy)benzyl)-1H-1,2,3-triazole-4-carboxamide]	> 7.00	> 7.00
